Experimental data published in PMC9250534, “Synthesis and direct assay of large macrocycle diversities by combinatorial late-stage modification at picomole scale” (Nature Communications, 2022).

Target: MDM2 (Homo sapiens, UniProt Q00987)
Assay: MDM2 binding screen of Libraries 3 and 4: displacement of fluorescent probe F-M8 at 750 nM macrocycle
Procedure, shortened: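 Competition with nutlin-3a was run using the fluorescein conjugate. Library members came from scaffolds reacted 6 h at room temperature with carboxylic acids (20 equiv.), HBTU and DABCO in DMSO. Quenching was overnight in Tris-Cl pH 7.4 buffer with 0.01% Tween20.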

[1] = Panel b, Library 3: 63 scaffolds combinatorially acylated with 15 carboxylic acids at 30 picomole scale, displacement of fluorescent peptide probe, macrocycle 750 nM
[2] = Panel c, Library 4: best nine scaffolds and 15 additional carboxylic acids, displacement of fluorescent probe

MDM2, sequence (Q00987 whole entry): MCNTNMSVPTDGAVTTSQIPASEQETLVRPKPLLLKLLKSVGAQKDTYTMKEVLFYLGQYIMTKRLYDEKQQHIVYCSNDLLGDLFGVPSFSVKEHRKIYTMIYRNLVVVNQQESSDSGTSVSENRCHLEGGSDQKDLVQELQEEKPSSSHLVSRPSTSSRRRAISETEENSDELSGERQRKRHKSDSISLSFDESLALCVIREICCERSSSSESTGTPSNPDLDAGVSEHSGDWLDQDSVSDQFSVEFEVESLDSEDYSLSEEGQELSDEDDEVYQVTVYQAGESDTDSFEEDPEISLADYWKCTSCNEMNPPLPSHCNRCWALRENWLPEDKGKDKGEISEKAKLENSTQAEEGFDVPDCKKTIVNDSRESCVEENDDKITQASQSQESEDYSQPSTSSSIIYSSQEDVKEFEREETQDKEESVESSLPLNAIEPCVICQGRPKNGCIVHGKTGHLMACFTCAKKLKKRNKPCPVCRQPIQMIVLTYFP

Row | Structure (SMILES) | fraction of fluorescent probe displaced [1] | fraction of fluorescent probe displaced [2]
1 | O=C(/C=C/c1ccc2ccccc2c1)NC[C@H]1NC(=O)[C@H]2CCCN(C2)C(=O)CCSSCCNC(=O)[C@H](Cc2cccc3ccccc23)NC1=O [X-Nip-D-Dap-1-NaI + Acid 112] | 0.021 | 
2 | Cn1cc(C[C@@H]2NC(=O)[C@@H](CNC(=O)/C=C/c3ccc(OCc4ccccc4)cc3)NC(=O)[C@H]3CCCN(C3)C(=O)CCSSCCNC2=O)c2ccccc21 [X-Nip-D-Dap-Me-Trp + Acid 110] | 0.008 | 
3 | CC(C)c1ccc(/C=C/C(=O)NC[C@@H]2NC(=O)[C@H]3CCCN(C3)C(=O)CCSSCCNC(=O)[C@H](Cc3cn(C)c4ccccc34)NC2=O)cc1 [X-Nip-Dap-Me-Trp + Acid 127] |  | 0.028
4 | Cn1cc(C[C@@H]2NC(=O)CN(CCNC(=O)/C=C/c3ccc(Cl)cc3)C(=O)[C@@H]3CN(CCO3)C(=O)CCSSCCNC2=O)c2ccccc21 [X-Cop-N-Aeg-Me-Trp + Acid 108] | 0.021 | 
5 | O=C(CCS(=O)(=O)c1ccccc1)NC[C@H]1NC(=O)[C@@H]2CN(CCO2)C(=O)CCSSCCNC(=O)[C@H](Cc2ccc3ccccc3c2)NC1=O [X-Cop-D-Dap-2-Nal + Acid 114] | -0.00533 | 
6 | O=C(CCS(=O)(=O)c1ccccc1)NC[C@@H]1NC(=O)[C@H]2CCCN(C2)C(=O)CCSSCCNC(=O)[C@H](Cc2c[nH]c3cc(Cl)ccc23)NC1=O [X-Nip-Dap-Cl-Trp + Acid 114] | -0.012 | 
7 | O=C1CCSSCCNC(=O)C(Cc2cccc3ccccc23)NC(=O)CN(CCNC(=O)C2COc3ccccc3O2)C(=O)C2(CC2)CN1 (mixture of isomers) [X-Amcp-N-Aeg-1-NaI + Acid 115] | -0.00533 | 
8 | CN1C(=O)C(CNC(=O)c2ccc3ccccc3c2)NC(=O)C2CN(CCO2)C(=O)CCSSCCNC(=O)C1Cc1c[nH]c2ccccc12 (stereo not drawn) [X-Cop-Dap-NMe-Trp + Acid 107] | 0.011 | 
9 | O=C(/C=C/c1ccc(OCc2ccccc2)cc1)NC[C@@H]1NC(=O)C2(CC2)CNC(=O)CCSSCCNC(=O)[C@@H](Cc2c[nH]c3ccccc23)NC1=O [X-Amcp-Dap-D-Trp + Acid 110] | 0.008 | 
10 | O=C(NCC1NC(=O)C2CN(CCO2)C(=O)CCSSCCNC(=O)C(Cc2cccc3ccccc23)NC1=O)c1ccc(Cl)cc1 (stereo not drawn) [X-Cop-Dap-1-NaI + Acid 25] | -0.012 | 
11 | O=C1CCSSCCNC(=O)[C@H](Cc2ccc3ccccc3c2)NC(=O)[C@@H](CNC(=O)C2COc3ccccc3O2)NC(=O)C2(CC2)CN1 (stereo partly drawn) [X-Amcp-D-Dap-2-Nal + Acid 115] | 0.015 | 
12 | CN1C(=O)[C@@H](CNC(=O)c2ccc(Cl)s2)NC(=O)[C@H]2CCCN(C2)C(=O)CCSSCCNC(=O)[C@@H]1Cc1c[nH]c2ccccc12 [X-Nip-D-Dap-NMe-Trp + Acid 14] | 0.00133 | 
13 | Cn1cc(C[C@@H]2NC(=O)[C@H](CNC(=O)/C=C/c3ccc(Cl)cc3)NC(=O)C3(CC3)CNC(=O)CCSSCCNC2=O)c2ccccc21 [X-Amcp-Dap-Me-Trp + Acid 108] | 0.008 | 
14 | O=C1CCSSCCNC(=O)[C@H](Cc2cccc3ccccc23)NC(=O)[C@@H](CNC(=O)c2ccc3ccccc3c2)NC(=O)C2(CC2)CN1 [X-Amcp-D-Dap-1-NaI + Acid 107] | -0.00844 | 
15 | C/C(=C\c1ccccc1)C(=O)NC[C@@H]1NC(=O)[C@@H]2CN(CCO2)C(=O)CCSSCCNC(=O)[C@H](Cc2c[nH]c3cc(Cl)ccc23)NC1=O [X-Cop-Dap-Cl-Trp + Acid 123] |  | 0.012
16 | O=C1CCSSCCNC(=O)[C@@H](Cc2c[nH]c3ccccc23)NC(=O)CN(CCNC(=O)c2cccc(Oc3ccccc3)c2)C(=O)C2(CC2)CN1 [X-Amcp-N-Aeg-D-Trp + Acid 111] | 0.008 | 

Row | Structure (SMILES) | fraction of fluorescent probe displaced [1] | fraction of fluorescent probe displaced [2]
17 | O=C1CCSSCCNC(=O)[C@H](Cc2c[nH]c3cc(Cl)ccc23)NC(=O)[C@@H](CNC(=O)c2ccc(Cl)cc2)NC(=O)C2(CC2)CN1 [X-Amcp-D-Dap-Cl-Trp + Acid 25] | 0.021 | 
18 | O=C1CCSSCCNC(=O)[C@H](Cc2ccc3ccccc3c2)NC(=O)[C@H](CNC(=O)C2CC2c2ccccc2)NC(=O)C2(CC2)CN1 (some centres unmarked) [X-Amcp-Dap-2-Nal + Acid 105] | -0.034 | 
19 | O=C(NC[C@@H]1NC(=O)[C@H]2CCCN(C2)C(=O)CCSSCCNC(=O)[C@@H](Cc2c[nH]c3ccccc23)NC1=O)c1ccc(Cl)s1 [X-Nip-Dap-D-Trp + Acid 14] | -0.172 | 
20 | O=C1CCSSCCNC(=O)[C@@H](Cc2c[nH]c3ccccc23)NC(=O)[C@H](CNC(=O)c2cccc(Oc3ccccc3)c2)NC(=O)C2(CC2)CN1 [X-Amcp-Dap-D-Trp + Acid 111] | 0.00133 | 
21 | CC(Oc1cccc(Cl)c1)C(=O)NCCN1CC(=O)NC(Cc2cn(C)c3ccccc23)C(=O)NCCSSCCC(=O)NCC2(CC2)C1=O (mixture of isomers) [X-Amcp-N-Aeg-Me-Trp + Acid 113] | 0.015 | 
22 | O=C(/C=C/c1ccc(OCc2ccccc2)cc1)NC[C@@H]1NC(=O)C2(CC2)CNC(=O)CCSSCCNC(=O)[C@H](Cc2c[nH]c3ccccc23)NC1=O [X-Amcp-Dap-Trp + Acid 110] | 0.015 | 
23 | O=C1CCSSCCNC(=O)[C@H](Cc2c[nH]c3ccccc23)NC(=O)CN(CCNC(=O)c2ccc3ccccc3c2)C(=O)C2(CC2)CN1 [X-Amcp-N-Aeg-Trp + Acid 107] | 0.018 | 
24 | O=C(/C=C/c1ccncc1)NC[C@H]1NC(=O)[C@H]2CCCN(C2)C(=O)CCSSCCNC(=O)[C@H](Cc2c[nH]c3ccccc23)NC1=O [X-Nip-D-Dap-Trp + Acid 106] | -0.002 | 
25 | O=C(CCS(=O)(=O)c1ccccc1)NC[C@H]1NC(=O)C2(CC2)CNC(=O)CCSSCCNC(=O)[C@H](Cc2c[nH]c3cc(Cl)ccc23)NC1=O [X-Amcp-D-Dap-Cl-Trp + Acid 114] | -0.00533 | 
26 | Cn1cc(C[C@@H]2NC(=O)[C@@H](CNC(=O)/C=C/c3ccc(Cl)cc3)NC(=O)C3(CC3)CNC(=O)CCSSCCNC2=O)c2ccccc21 [X-Amcp-D-Dap-Me-Trp + Acid 108] | 0.008 | 
27 | O=C(/C=C/c1ccc(OCc2ccccc2)cc1)NCCN1CC(=O)N[C@@H](Cc2cccc3ccccc23)C(=O)NCCSSCCC(=O)N2CCO[C@@H](C2)C1=O [X-Cop-N-Aeg-1-NaI + Acid 110] | 0.035 | 
28 | O=C(NC[C@@H]1NC(=O)[C@H]2CCCN(C2)C(=O)CCSSCCNC(=O)[C@H](Cc2c[nH]c3ccccc23)NC1=O)c1ccc(Cl)s1 [X-Nip-Dap-Trp + Acid 14] | 0.208 | 
29 | O=C(O)CCS(=O)(=O)c1ccccc1 [Acid 114] | 0.035 | 
30 | CCOc1ccc(C=CC(=O)NCC2NC(=O)C3CN(CCO3)C(=O)CCSSCCNC(=O)C(Cc3cn(C)c4ccccc34)NC2=O)cc1 (stereo not drawn) [X-Cop-Dap-Me-Trp + Acid 117] |  | 0.052
31 | O=C(C=Cc1ccc(Cl)cc1)NCCN1CC(=O)NC(Cc2cccc3ccccc23)C(=O)NCCSSCCC(=O)N2CCOC(C2)C1=O (centres unmarked) [X-Cop-N-Aeg-1-NaI + Acid 108] | 0.048 | 
32 | O=C(/C=C/c1ccc2ccccc2c1)NCCN1CC(=O)N[C@H](Cc2c[nH]c3ccccc23)C(=O)NCCSSCCC(=O)NCC2(CC2)C1=O [X-Amcp-N-Aeg-D-Trp + Acid 112] | 0.008 | 
